Measured values taken from ChEMBL document CHEMBL4325868, “Design, synthesis and antitubercular activity of 4-alkoxy-triazoloquinolones able to inhibit the M. tuberculosis DNA gyrase” (Eur J Med Chem, 2019).
pIC50: −log10 of the molar value. Values after ≈ are worked out from the molar mass of the structure shown.

What was measured:
[1] = tested on: Mycobacterium tuberculosis; assay: Antitubercular activity against Mycobacterium tuberculosis H37Rv after 7 days by resazurin microtiter assay; assay type: functional; settings: 168 h
[2] = Cytotoxicity against African green monkey Vero cells assessed as cell viability at 100 uM after 72 hrs by MTT assay relative to control; assay type: cell-based; settings: chlorocebus sabaeus, read-out: Activity
[3] = target: DNA gyrase subunit A/DNA gyrase subunit B (Mycobacterium tuberculosis (strain ATCC 25618 / H37Rv), UniProt P9WG45+P9WG47); assay: Inhibition of Mycobacterium tuberculosis DNA gyrase assessed as reduction in supercoiling of relaxed pBR322 DNA substrate after 30 mins by ethidium bromide staining based agarose gel electrophoresis method; assay type: protein-complex assay
DNA gyrase subunit A/DNA gyrase subunit B, sequence (P9WG45 whole entry): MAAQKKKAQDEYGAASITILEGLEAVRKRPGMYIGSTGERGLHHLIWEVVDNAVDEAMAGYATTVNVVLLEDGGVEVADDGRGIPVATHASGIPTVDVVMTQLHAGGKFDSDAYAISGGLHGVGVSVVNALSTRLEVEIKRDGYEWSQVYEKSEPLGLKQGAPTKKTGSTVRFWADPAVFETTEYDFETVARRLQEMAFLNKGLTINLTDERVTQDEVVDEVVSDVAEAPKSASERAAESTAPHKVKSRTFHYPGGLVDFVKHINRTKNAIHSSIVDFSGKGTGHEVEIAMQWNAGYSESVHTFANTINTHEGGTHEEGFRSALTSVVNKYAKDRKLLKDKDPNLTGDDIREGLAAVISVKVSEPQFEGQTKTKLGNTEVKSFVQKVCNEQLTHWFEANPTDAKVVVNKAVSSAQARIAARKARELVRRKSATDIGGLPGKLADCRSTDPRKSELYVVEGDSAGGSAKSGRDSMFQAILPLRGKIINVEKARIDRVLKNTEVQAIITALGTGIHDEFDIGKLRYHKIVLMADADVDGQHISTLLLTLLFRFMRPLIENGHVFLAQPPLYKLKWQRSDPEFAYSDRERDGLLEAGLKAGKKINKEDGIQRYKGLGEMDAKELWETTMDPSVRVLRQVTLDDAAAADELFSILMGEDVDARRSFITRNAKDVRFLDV
DNA gyrase subunit A/DNA gyrase subunit B, sequence (P9WG47 whole entry): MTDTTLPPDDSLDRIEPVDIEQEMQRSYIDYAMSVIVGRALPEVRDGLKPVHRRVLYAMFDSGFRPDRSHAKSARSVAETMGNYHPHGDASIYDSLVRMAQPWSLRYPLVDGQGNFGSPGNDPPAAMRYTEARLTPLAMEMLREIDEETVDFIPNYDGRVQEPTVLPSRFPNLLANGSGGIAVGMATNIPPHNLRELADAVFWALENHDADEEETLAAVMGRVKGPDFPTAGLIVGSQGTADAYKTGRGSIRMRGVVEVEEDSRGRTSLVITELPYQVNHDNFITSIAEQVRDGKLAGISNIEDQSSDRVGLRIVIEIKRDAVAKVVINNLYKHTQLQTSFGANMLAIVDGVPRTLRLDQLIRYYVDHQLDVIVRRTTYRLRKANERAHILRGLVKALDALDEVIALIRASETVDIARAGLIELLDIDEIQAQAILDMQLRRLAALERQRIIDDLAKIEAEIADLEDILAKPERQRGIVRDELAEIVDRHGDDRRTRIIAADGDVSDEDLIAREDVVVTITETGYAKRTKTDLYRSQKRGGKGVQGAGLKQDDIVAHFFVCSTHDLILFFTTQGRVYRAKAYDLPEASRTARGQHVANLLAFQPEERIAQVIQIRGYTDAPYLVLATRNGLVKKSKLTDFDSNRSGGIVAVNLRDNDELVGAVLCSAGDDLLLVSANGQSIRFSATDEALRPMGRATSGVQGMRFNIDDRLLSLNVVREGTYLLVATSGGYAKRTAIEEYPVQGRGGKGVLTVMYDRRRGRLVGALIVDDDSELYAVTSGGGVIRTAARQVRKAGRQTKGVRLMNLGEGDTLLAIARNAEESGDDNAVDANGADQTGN

[4] = tested on: Mycobacterium tuberculosis; assay: Antitubercular activity against Mycobacterium tuberculosis isolate 231 after 7 days by resazurin microtiter assay; assay type: functional; settings: isolate 231, 168 h
[5] = tested on: Mycobacterium tuberculosis; assay: Antitubercular activity against Mycobacterium tuberculosis isolate 1574 after 7 days by resazurin microtiter assay; assay type: functional; settings: isolate 1574, 168 h
[6] = tested on: Mycobacterium tuberculosis; assay: Antitubercular activity against Mycobacterium tuberculosis isolate 1777 after 7 days by resazurin microtiter assay; assay type: functional; settings: isolate 1777, 168 h
[7] = tested on: Mycobacterium tuberculosis; assay: Antitubercular activity against Mycobacterium tuberculosis isolate 147 after 7 days by resazurin microtiter assay; assay type: functional; settings: isolate 147, 168 h
[8] = tested on: Mycobacterium tuberculosis; assay: Antitubercular activity against Mycobacterium tuberculosis isolate 1657 after 7 days by resazurin microtiter assay; assay type: functional; settings: isolate 1657, 168 h
[9] = tested on: Mycobacterium tuberculosis; assay: Antitubercular activity against Mycobacterium tuberculosis isolate 1535 after 7 days by resazurin microtiter assay; assay type: functional; settings: isolate 1535, 168 h
[10] = tested on: Mycobacterium tuberculosis; assay: Antitubercular activity against Mycobacterium tuberculosis isolate 1567 after 7 days by resazurin microtiter assay; assay type: functional; settings: isolate 1567, 168 h
[11] = tested on: Staphylococcus aureus; assay: Antibacterial activity against Staphylococcus aureus ATCC 2913 after overnight incubation by broth dilution assay; assay type: functional
[12] = tested on: Salmonella typhimurium; assay: Antibacterial activity against Salmonella typhimurium ATCC 14028 after overnight incubation by broth dilution assay; assay type: functional, Salmonella enterica subsp. enterica serovar Typhimurium; settings: Salmonella enterica
[13] = tested on: Enterococcus faecalis; assay: Antibacterial activity against Enterococcus faecalis ATCC 2491 after overnight incubation by broth dilution assay; assay type: functional
[14] = tested on: Escherichia coli; assay: Antibacterial activity against Escherichia coli ATCC 15922 after overnight incubation by broth dilution assay; assay type: functional
[15] = tested on: Candida albicans; assay: Antifungal activity against Candida albicans after overnight incubation by broth dilution assay; assay type: functional
[16] = tested on: Candida tropicalis; assay: Antifungal activity against Candida tropicalis after overnight incubation by broth dilution assay; assay type: functional

| Compound | MIC [1] | viability at 72 h, 100 µM [2] | other results |
| --- | --- | --- | --- |
| COc1c(C(=O)O)cnc2c1cc(OC)c1nnn(C)c12 | > 100 µM | 85.7% |  |
| COc1cc2c(=O)c(C(=O)O)c[nH]c2c2nnn(C)c12 | > 100 µM | 90.2% | pIC50 [3]: 4.04 |
| CCOC(=O)c1cn(CC)c2c(cc(OC)c3nn(C)nc32)c1=O | > 100 µM | 79.3% |  |
| CCSc1cc2c(=O)c(C(=O)O)cn(C)c2c2nnn(C)c12 | 50.3 µM (≈ 16 µg/mL) | 87.7% |  |
| CCOc1c(C(=O)O)cnc2c1cc(OC)c1nnn(C)c12 | > 100 µM | 83.6% |  |
| CCn1cc(C(=O)O)c(=O)c2cc(F)c3c(nnn3C)c21 | > 100 µM | 95.1% |  |
| COc1cc2c(=O)c(C(=O)O)cn(C)c2c2nnn(C)c12 | 6.9 µM (≈ 1.99 µg/mL) | 90.4% | MIC [4]: 4 µM (≈ 1.15 µg/mL); MIC [5]: 32 µM (≈ 9.22 µg/mL); MIC [6]: 8 µM (≈ 2.31 µg/mL); MIC [7]: 8 µM (≈ 2.31 µg/mL); MIC [8]: 4 µM (≈ 1.15 µg/mL); MIC [9]: 16 µM (≈ 4.61 µg/mL); MIC [10]: 32 µM (≈ 9.22 µg/mL); pIC50 [3]: 4.56; MIC [11]: > 100 µM; MIC [12]: > 100 µM; MIC [13]: > 100 µM; MIC [14]: > 100 µM; MIC [15]: > 100 µM; MIC [16]: > 100 µM |
| CCn1cc(C(=O)O)c(=O)c2cc(OC)c3nn(C)nc3c21 | > 100 µM | 94.2% |  |
| O=C(O)c1cn(C2CC2)c2cc(N3CCNCC3)c(F)cc2c1=O [CIPROFLOXACIN] | 1.5 µM (≈ 0.497 µg/mL) | 95.2% |  |
| CCn1cc(C(=O)O)c(=O)c2cc(OC)c3c(nnn3C)c21 | 52.9 µM (≈ 16 µg/mL) | 90.1% |  |
| CCOC(=O)c1cn(C)c2c(cc(OC)c3c2nnn3C)c1=O | > 100 µM | 92% |  |
| CCOC(=O)c1cn(CC)c2c(cc(OCC)c3c2nnn3C)c1=O | > 100 µM | 95.1% |  |
| CCOC(=O)c1cn(CC)c2c(cc(OC)c3c2nnn3C)c1=O | > 100 µM | 84.4% |  |
| COc1cc2c(=O)c(C(=O)O)c[nH]c2c2c1nnn2C | > 100 µM | 92.9% |  |
| CCOC(=O)c1cnc2c(cc(OC)c3nnn(C)c32)c1OC | > 100 µM | 80.8% |  |
| CCOc1cc2c(=O)c(C(=O)O)cn(C)c2c2nnn(C)c12 | 6.6 µM (≈ 2 µg/mL) | 94.3% | pIC50 [3]: 4.55; MIC [11]: > 100 µM; MIC [12]: > 100 µM; MIC [13]: > 100 µM; MIC [14]: > 100 µM; MIC [15]: > 100 µM; MIC [16]: > 100 µM |
| Cn1cc(C(=O)O)c(=O)c2cc(F)c3c(nnn3C)c21 | 57.9 µM (≈ 16 µg/mL) | 81.2% |  |
| CCOc1cc2c(=O)c(C(=O)O)cn(CC)c2c2nnn(C)c12 | 25.3 µM (≈ 8 µg/mL) | 92.1% |  |
| CCOC(=O)c1cnc2c(cc(OC)c3nnn(C)c32)c1OCC | > 100 µM | 85.4% |  |
| Cn1cc(C(=O)O)c(=O)c2cc([N+](=O)[O-])c3c(nnn3C)c21 | > 100 µM | 88.8% |  |
| COc1cc2c(=O)c(C(=O)O)cn(C)c2c2nn(C)nc12 | 27.8 µM (≈ 8.01 µg/mL) | 89.5% |  |
| COC(=O)c1cn(C)c2c(ccc3c2nnn3C)c1=O | > 100 µM | 91.2% |  |
